From patent EP0719267B1, “SECOND MESSENGER CELL SIGNALING INHIBITORS” (CELL THERAPEUTICS, INC., priority 1993, dated 1994)

Columns and labels:
[1] = tested on: proliferative PMBC response to allogeneic stimulation; assay: Two-way mixed lymphocyte reaction; format: cell-based
Source text: This example illustrates therapeutic potential for various autoimmune and inflammatory diseases of the inventive compounds by comparing potency (inhibitive activity) with cytotoxicity data obtained using the following indicative assay procedures. In a mixed lymphocyte reaction assay of compounds nos. […] Compounds nos. […] 2A and 2B. Both compounds nos. […] 2C.
Compound no. […] Compound no.

mast cell degranulation = assay: Serotonin release assay for inhibition of mast cell degranulation; format: cell-based; conditions: for % Inhibition: Concentration 50 µM
Source text: This assay provides an in vitro model for an allergy and asthma therapeutic product. […]

[2] = tested on: mixed lymphocyte reaction assay culture; assay: Cell percent viability in mixed lymphocyte reaction culture; format: cell-based; conditions: 100 µM, six days of cell culture
Description: Cell percent viability in mixed lymphocyte reaction assay culture was determined after six days of cell culture. […] Control cells unexposed to drugs are generally 78 to 85% viable under these culture conditions. In this assay, all inventive compounds were present at 100 µM concentrations, generally well above corresponding IC50 values in this assay (see fig. 2D). […] Compounds nos.

CMV promoter activity = assay: microbe, parasite or virus in culture; format: cell-based; conditions: for IC50: transformed (adenovirus) cells
Source text: This example illustrates data of proliferative activity of various inventive compounds for inducing CMV promoter activity. The CMV promoter assay measures gene transcription and translation activity wherein any active compounds will have cytotoxic activity for inhibiting cellular protein synthesis in transformed (adenovirus) cells. Compound no. […]

[3] = tested on: murine thymocyte proliferation; assay: Thymocyte proliferation stimulated by Con A and IL-1α; format: cell-based; conditions: Mus musculus, 2 h, added two hours prior to Con A and IL-1α
Description: In a first part of this example, compounds nos. 30, 33, 28 and 27 (see above for chemical names and structures) show effective inhibition of murine thymocyte proliferation stimulated by Con A and interleukin 1 alpha (IL-1α). Compounds nos. 30, 33, 28 and 27 were added to cell cultures two hours prior to activation with Con A and IL-1α in a thymocyte co-stimulation procedure akin to that discussed in example 21. […] IC50 values determined for each inventive compound tested are as follow: compound no. […] Background counts in the assay were less than 200 cpm.

[4] = tested on: murine thymocyte proliferation; assay: Thymocyte proliferation co-stimulated by ConA and IL-2 (tritiated thymidine); format: cell-based, Balb/C mice; conditions: for inhibition of thymocyte proliferation: ConA and IL-2 co-stimulation
Description: (§1) ConA, used to activate CD3, induces T-cell proliferation and differentiation. Thymuses, obtained from normal, female Balb/C mice, were dissociated and plated into 96-well plates at a density of 2 x 10^5 cells/well. ConA (0.25 mg/ml) and IL-2 (15 U/ml) were added to the wells. The cells were incubated for 4 days at 37°C. On day 4, the cells were pulsed with tritiated thymidine and incubated for an additional 4 hours. The amount of tritiated thymidine dye incorporated by the harvested cells was determined in a liquid scintillation counter. Drug doses (shown in figs. 1A and 1B) were added two hours prior to ConA and IL-2 activation.
as §1, with “Thymuses,” for “ConA, used to activate CD3, induces T-cell proliferation and differentiation. Thymuses,”, “37 °C.” for “37°C.”, “Doses” for “Drug doses”, “26A, 26B” for “1A”, “26C)” for “1B)”
In another in vitro protocol, thymocyte proliferation was induced by sub-mitogenic doses of Con A (0.25 µg/ml) and IL-2 (20 ng/ml). Cells were stimulated for 96 hours, prior to addition of ^3H-TdR for 4 hours. The cells were harvested and incorporation of ^3H-TdR was determined.
45 on co-stimulated thymocyte proliferation. In an assay procedure, murine thymocytes were stimulated with ConA and IL-2 with 1 µM compound no. 45 added either 1 hour prior to IL-2 (-1), simultaneous with IL-2 (0) or at various times following IL-2 addition (1-92 hour). At 92 hours the thymocytes were pulsed with ^3H-TdR, harvested and counted by scintillation 4 hours later.

[5] = tested on: murine splenocyte proliferation; assay: Splenocyte (B cell) proliferation stimulated by anti-mu/anti-IgM and IL-4; format: cell-based; conditions: Mus musculus, anti-mu and IL-4 12.5 ng/ml
Description: This example illustrates inhibitive effects of compounds nos. 27 and 28 on murine splenocyte proliferation stimulated by anti-mu ([…]) and interleukin-4 (IL-4, 12.5 ng/ml). This in vitro assay, described above, is indicative of immune-suppressive/autoimmune treatment assay emphasizing humoral or B cell immune response. The inventive compound was added to the cells at the doses indicated two hours prior to activation with anti-mu and IL-4. Both compounds nos. 27 and 28 inhibited splenocyte proliferation in a dose-response manner. IC50 values for compounds nos. Background counts were less than 200 cpm.
In figure 57, results shown illustrate that inventive compound no. 45 inhibits B cell proliferation. Murine splenocytes were stimulated with anti-IgM antibodies (10 µg/ml) and murine IL-4 (12.5 ng/ml). Cells were pulsed with ^3HTdR at 44 hours, harvested 4 hours later, and the incorporation of ^3H-TdR was determined by liquid scintillation.

Human stromal cells = assay: Stromal cell proliferation in response to PDGF-BB; format: cell-based; conditions: 50 ng/ml PDGF-BB
Description: This assay is useful for predicting therapeutic activity for preventing or treating restenosis, atherosclerosis and coronary artery disease. Human stromal cells were starved in serum-free media for one day and then stimulated with 50 ng/ml PDGF-BB. Inventive compounds, at various concentrations, were added one hour prior to PDGF stimulation. PDGF and tritiated thymidine were added and the cells allowed to incubate for one day, following addition of the PDGF and thymidine. 24 Hours later, the cells were harvested and counted by liquid scintillation counting. Results for compounds nos. Background counts (i.e., starved cells) were approximately 1% of control levels. […] 30, 28, 29, 32 and 31, respectively.

[6] = tested on: PDGF/IL-1 co-stimulation, proliferation; assay: PDGF/IL-1 co-stimulation proliferation assay; format: cell-based; conditions: fig. 14
Source text: The PDGF/IL-1 assay is useful in measuring in vitro activity, indicative of therapeutic potential for treating or preventing restenosis and reperfusion. Figure 14 reports IC50 bar graph results for a group of inventive compounds nos. 27, 28, 32, 30, 31, 32 and 34. In this predictive, in vitro model, compounds nos.

Saccharomyces cervisiae = assay: Yeast growth assay (anti-yeast and anti-fungal activity); format: cell-based; conditions: 100 µM
Description: This example illustrates the effects of a reference compound "X", and inventive compounds nos. 29, 30, 31, 32 and 33 (see above for names and structures) on yeast growth (Saccharomyces cervisiae)--using 100 µM concentrations--as compared with yeast activity in the absence of any compound additive (control). This assay measured anti-yeast and anti-fungal activity of the inventive compounds tested.

[7] = Cytotoxicity to stromal cells in the stromal cell/PDGF stimulation assay; format: cell-based; conditions: human, read-out: concentrations with cytotoxic effects
Description: In conjunction with the human stromal cell/PDGF stimulation assay, cytotoxicity of the inventive compounds tested to stromal cells was also determined. […] Only compond no.

[8] = tested on: murine cytotoxic T-cell line, CT6; assay: Cytokine-induced proliferation of the cytotoxic T-cell line CT6 / CT-6.1; format: cell-based
Description: Another assay in this example was used to determine inhibitive activity of the inventive compounds on direct IL-2-induced proliferation in a murine cytotoxic T-cell line, CT6. The CT6 cell line is an IL-2-dependent cell line. IL-2 was removed from the medium for 24 hours prior to stimulation. […] 49, 50, 45, 43 or 41 were added at various concentrations. The cells were stimulated with IL-2 and amount of tritiated thymidine dye incorporated was measured 48 hours later.
In another related assay, inhibitory effects on CT6 cell proliferation is examined. CT6 cells are a murine IL-2 dependent, cytotoxic T cell line that proliferate in response to murine IL-2 (15 U/ml).
CT-6.1 cells were starved overnight and stimulated with IL-2 (20 ng/ml). Twenty hours later, cells were labeled for 4 hours with ^3H-TdR and counted by liquid scintillation.
CT6.1 cells were cultured with IL-2 with or without the addition of inventive compound no. 45 (2 µM) and viable cells counted for up to 8 days. On day 4, two cultures previously incubated with compound no. 45, were washed and recultured with fresh IL-2 with or without compound no. 45 (2 µM).
Procedurally, CT-6.1 cells were starved overnight and stimulated with either IL-2 (20 ng/ml), IL-4 (50 ng/ml) or IL-7 (25 ng/ml). ^3H-TdR was added at 20 hours, cells were harvested 4 hours later, and the incorporation of ^3H-TdR was determined.

mouse thymocytes = assay: Con A priming followed by IL-2 restimulation of thymocytes; format: cell-based
Description: In a proliferation assay, mouse thymocytes were pre-incubated overnight with Con A (a "priming step"), washed, and restimulated with IL-2 in […] of inventive compounds. On day 4, the cells were pulsed with tritiated thymidine and allowed to incubate for an additional 4 hours. The cells were harvested and the amount of tritiated thymidine incorporated by the harvested cells was determined in a liquid scintillation counter. […] 3.
On day 4, the cells were pulsed with tritiated thymidine and allowed to incubate for an additional 4 hours. The cells were harvested and the amount of incorporated tritiated thymidine was determined in a liquid scintillation counter.

[9] = tested on: IL-2 (alpha chain CD25) receptor; assay: IL-2 receptor expression on anti-CD3 stimulated splenocytes (flow cytometry); format: cell-based, mouse; conditions: anti-CD3 10 µg/ml, 1 µM
Description: This investigation illustrates IL-2 (alpha chain CD25) receptor expression on mouse splenoyctes. The IL-2 receptor is not expressed on resting T-cells, but is rapidly-induced by certain stimulants, e.g. antigen recognition or treatment with ConA or antibodies to CD3 (anti-CD3). IL-2-dependent proliferation requires IL-2 receptor expression. […] 49 (1 µM). Following overnight incubation, the splenocytes were stained with a fluoresceinated anti-IL-2 receptor antibody and fluorescence measured by flow cytometry. Figures 5A and 5B are frequency histograms of measurements for 20,000 cells per sample.
In another assay, inventive compound no. […] Murine splenocytes were activated for 24 hours with anti-CD3 (1 µg/ml), stained with a fluorescent antibody to CD25 and analyzed by flow cytometry.

[10] = tested on: splenocyte IL-2-stimulated proliferation; assay: Splenocyte IL-2-stimulated proliferation; format: cell-based; conditions: Mus musculus, read-out: block of splenocyte IL-2-stimulated proliferation
IL-2 = IL-2 production in thymocytes stimulated with ConA and IL-1 (ELISA); format: cell-based, murine; conditions: ConA and IL-1, 4 days
Source text: Thymocytes were stimulated with ConA and IL-1 for 4 days with or without adding inventive compounds to the culture media. The supernatants were removed and assayed by ELISA for IL-2 levels by a commercially available kit.

Compound | IC50 (CMV promoter activity) [µM] | cytotoxicity (percent viability) [2] | IC50 [3] [µM] | inhibition of thymocyte proliferation [4] | IC50 (Human stromal cells) [µM] | inhibitive activity [6] | yeast-growth inhibitive activity (Saccharomyces cervisiae) | % Inhibition (mast cell degranulation) | further results
Cn1cnc2c1c(=O)n(CCCCC(O)CNCc1ccccc1)c(=O)n2C (stereo not drawn) [compound no. 13, 1-(5-hydroxy-6-(N-benzyl)aminohexyl)-3,7-dimethylxanthine] | > 500 | little or no cytotoxicity |  |  |  |  |  |  | IC50 ([1]; Lymphocyte, figs. 2A-2C): 55 µM; inhibition at 100 µM (mast cell degranulation; Mast cell, Concentration 100 µM): 28%
CCCCCCCCNCC(O)CCCCn1c(=O)c2c(ncn2C)n(C)c1=O (stereo not drawn) [compound no. 28, 1-(5-hydroxy-6-(N-octyl)aminohexyl)-3,7-dimethylxanthine] | 50 | the most cytotoxic at 100 µM | 4.6 | the most potent immune-suppressive effects | 3.2 | potent inhibitive activity |  |  | immune suppression activity ([1]; fig. 2D): the most potent compound of those assayed; IC50 [5]: 5.2 µM
CCCCCCCCCCCNCC(O)CCCCn1c(=O)c2c(ncn2C)n(C)c1=O (stereo not drawn) [compound no. 30, 1-(6-Undecylamino-5-hydroxyhexyl)-3,7-dimethylxanthine] | 15 |  | 0.94 | the most potent immune-suppressive effects | 0.9 | potent inhibitive activity | showed yeast-growth inhibitive activity | too toxic | MCC [7]: > 900 nM; cytotoxicity, ranking among compounds tested (CMV promoter activity): the most cytotoxic compound tested
CCCCCCN(CCCCCC)CC(O)CCCCn1c(=O)c2c(ncn2C)n(C)c1=O (stereo not drawn) [compound no. 33, 1-(5-hydroxy-6-(N,N-dihexyl)aminohexyl)-3,7-dimethylxanthine] | 100 |  | 8.6 |  |  |  | showed yeast-growth inhibitive activity |  | 
CCCCCCCCNCC(O)CCCCCCCn1c(=O)c2c(ncn2C)n(C)c1=O (stereo not drawn) [compound no. 35, 1-(8-hydroxy-9-(N-octyl)aminononyl)-3,7-dimethylxanthine] |  |  |  |  |  |  |  | too toxic | inhibition of IL-2-induced proliferation ([8]; murine IL-2 (15 U/ml), figs. 21C and 21D): exhibited no activity in this assay; IC50 values (range in words) ([4]; figs. 21A and 21B): low micromolar; inhibition of thymocyte proliferation, compound added with IL-2 (mouse thymocytes; Con A pre-treated cells, 1µM): dramatically inhibited thymocyte proliferation; proliferation in response to IL-2 after compound present during Con A priming (mouse thymocytes; compound during overnight Con A incubation, IL-2 without compound): normal thymocyte proliferation in response to IL-2 stimulation
CCCCCCCCCCNCC(O)CCCCCCCCCn1c(=O)c2c(ncn2C)n(C)c1=O (stereo not drawn) [compound no. 49, 1-(11-Decylamino-10-hydroxyundecyl)-3,7-dimethylxanthine] |  |  |  |  |  |  |  |  | IL-2 receptor expression [9]: has no effect on receptor expression; inhibition of direct IL-2-induced proliferation ([8]; added one hour prior to IL-2, thymidine at 48 hours): inhibited direct IL-2-induced CT6 proliferation; inhibition at 1 µM [10]: 90%; IL-2 production (IL-2): do not inhibit production of IL-2
